# Literature values, collected in patent US20140275170A1, “TASTE MASKING OF ANESTHETICS AND ANALGESICS” (priority 2013, published 2014).
# Conditions: maximum doses of 7 mg/kg (550 mg)
structure (smiles),measurement,value
Cc1cccc(C)c1NC(=O)C1CCCCN1C (stereo not shown) [mepivacaine],Adverse effect at maximum doses,without adverse effect
